Assay results taken from patent publication US10065990B2, “Cyclic peptide compound, and preparation method, pharmaceutical composition and use thereof” (HANGZHOU GUANYU BIO-MEDICAL CO., LTD, priority 2013, dated 2018).
Where two headings read alike, the source gives them in different places.

How the values were obtained:
[1] = test system: HCC827 (human non-small cell lung cancer cells); test: MTT cancer cell growth inhibition; type: cell-based; conditions: MTT, 72 hours incubation, HCC827 cells, read-out: GI50 HCC827
In short: (§1)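 MTT viability, 570 nm, GI50. Cells 1500/well; compound 72 h at final 10^−5–10^−10 M in triplicate.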

[2] = test system: DU145 (human prostate cancer cells); test: MTT cancer cell growth inhibition; type: cell-based; conditions: MTT
In short: as §1

[3] = test system: lncap (prostate cancer cells); test: MTT cancer cell growth inhibition; type: cell-based; conditions: MTT
In short: as §1

[4] = test system: A549 (human lung cancer cells); test: MTT cancer cell growth inhibition; type: cell-based; conditions: MTT
In short: as §1

[5] = test system: H1975 (non-small cell lung adenocarcinoma); test: MTT cancer cell growth inhibition; type: cell-based; conditions: MTT, 72 hours incubation, H1975 cells, read-out: GI50 H1975
In short: as §1

[6] = test system: U937 (human leukemia cells); test: MTT cancer cell growth inhibition; type: cell-based; conditions: MTT
In short: as §1

[7] = test system: MOLT-4 (human acute lymphoblastic leukemia cells); test: MTT cancer cell growth inhibition; type: cell-based; conditions: MTT
In short: as §1

[8] = test system: PANC-1 (Pac-1, human pancreatic cancer cells); test: MTT cancer cell growth inhibition; type: cell-based; conditions: MTT
In short: as §1

[9] = test system: MCF-7 (human breast cancer cells); test: MTT cancer cell growth inhibition; type: cell-based
In short: as §1

[10] = test system: Bel-7402 (human hepatoma cells); test: MTT cancer cell growth inhibition; type: cell-based; conditions: MTT, 72 hours incubation, Bel-7402 cells, read-out: GI50 Bel-7402
In short: as §1

[11] = test system: K562 (human leukemia cells); test: MTT cancer cell growth inhibition; type: cell-based; conditions: MTT, 72 hours incubation, K562 cells, read-out: GI50 K562
In short: as §1

HDAC11 = molecular target: T1, HDAC11 (Homo sapiens, UniProt Q96DB2); test: HDAC biochemical activity measurement (fluorescent substrate deacetylation);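 further: HDAC11 enzyme acting on an acetyl-lysine fluorogenic substrate, then a developer frees the fluorophore, read at excitation 360 nm and emission 460 nm, IC50 over a compound dilution series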
T1 sequence (Q96DB2 1-347): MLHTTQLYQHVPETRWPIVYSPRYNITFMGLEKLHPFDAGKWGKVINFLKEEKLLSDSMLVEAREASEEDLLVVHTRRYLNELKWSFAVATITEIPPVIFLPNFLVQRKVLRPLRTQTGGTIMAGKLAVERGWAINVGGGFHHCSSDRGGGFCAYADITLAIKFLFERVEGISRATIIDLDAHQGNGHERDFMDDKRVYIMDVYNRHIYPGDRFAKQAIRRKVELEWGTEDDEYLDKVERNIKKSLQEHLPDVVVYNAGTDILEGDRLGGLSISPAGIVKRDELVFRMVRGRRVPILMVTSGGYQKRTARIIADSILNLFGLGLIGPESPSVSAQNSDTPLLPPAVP
Protocol: The chemical activity of the compound is determined according to the degree of deacetylation inhibition of the HDAC enzyme. This experiment measured the degree of deacetylation related to tumor proliferation and metastasis of HDAC1, HDAC2, HDAC3, HDAC8, HDAC11 five subtypes HDAC enzymes. After the substrate containing an acetylated lysine side chain and HDAC enzyme are labeled with a fluorescent label, the fluorescent substrate is de acetyl. The fluorescent labeled substrate is cleaved by the enzyme, and the fluorescent substance is released, which generates 460 nm emission light under the excitation of 360 nm light.
HDAC substrate was diluted with reaction buffer to 200M (reaction concentration of 20M), the HDAC enzyme was diluted to the appropriate concentration, then added different concentrations of the test compounds and acted at 37° C. 30 minutes, and then added the same volume of 2-times concentration substrate developing solution (developer), incubated at room temperature for 15 minutes.

HDAC2 = HDAC2 (Homo sapiens, UniProt Q92769); test: as above; conditions: 37° C. 30 minutes;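 further: HDAC2 enzyme with an acetyl-lysine fluorescent substrate, then developer added, fluorescence read at excitation 360 nm and emission 460 nm, inhibition measured across several compound concentrations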
Sequence of HDAC2 (Q92769 whole entry, species assumed): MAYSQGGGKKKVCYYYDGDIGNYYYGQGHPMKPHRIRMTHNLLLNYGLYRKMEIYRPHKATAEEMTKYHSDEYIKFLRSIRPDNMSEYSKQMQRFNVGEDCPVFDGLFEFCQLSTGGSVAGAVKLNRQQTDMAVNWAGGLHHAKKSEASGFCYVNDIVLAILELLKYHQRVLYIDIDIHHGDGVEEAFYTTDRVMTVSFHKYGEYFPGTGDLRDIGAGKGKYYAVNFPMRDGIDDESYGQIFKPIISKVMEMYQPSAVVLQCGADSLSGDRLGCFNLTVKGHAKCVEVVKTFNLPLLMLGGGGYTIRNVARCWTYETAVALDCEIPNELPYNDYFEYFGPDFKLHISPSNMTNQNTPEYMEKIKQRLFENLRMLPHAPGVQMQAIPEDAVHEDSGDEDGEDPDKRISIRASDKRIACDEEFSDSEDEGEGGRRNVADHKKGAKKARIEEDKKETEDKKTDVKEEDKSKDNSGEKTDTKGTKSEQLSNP

[12] = Homo sapiens, DU-145, 72 h, DU145 cells, 72 hours incubation, read-out: GI50 Du1
[13] = Homo sapiens, LNCaP, 72 h, lncap cells, 72 hours incubation, read-out: GI50 lnca
[14] = Homo sapiens, A549, 72 h, A549 cells, 72 hours incubation, read-out: GI50 A54
[15] = Homo sapiens, U-937, 72 h, U937 cells, 72 hours incubation, read-out: GI50 U93
[16] = Homo sapiens, MOLT-4, 72 h, MOLT-4 cells, 72 hours incubation, read-out: GI50 Mol
[17] = Homo sapiens, PANC-1, 72 h, PANC-1 cells, 72 hours incubation, read-out: GI50 PAN
[18] = Homo sapiens, MCF7, 72 h, MCF-7 cells, 72 hours incubation, read-out: GI50 MCF
[19] = 72 hours incubation, read-out: GI50 Du1
[20] = Homo sapiens, LNCaP, 72 h, 72 hours incubation, read-out: GI50 lnca
[21] = Homo sapiens, A549, 72 h, 72 hours incubation, read-out: GI50 A54
[22] = Homo sapiens, U-937, 72 h, 72 hours incubation, read-out: GI50 U93
[23] = Homo sapiens, MOLT-4, 72 h, 72 hours incubation, read-out: GI50 Mol
[24] = Homo sapiens, PANC-1, 72 h, 72 hours incubation, read-out: GI50 PAN
[25] = Homo sapiens, MCF7, 72 h, 72 hours incubation, read-out: GI50 MCF
[26] = read-out: IC50 HDAC11, HDAC11, 37° C. 30 minutes
[27] = Homo sapiens, DU-145, 72 h, 72 hours incubation, read-out: GI50 Du1

| Compound | GI50 ([1]; Homo sapiens, HCC827, 72 h) [µM] | GI50 [2, 12] [µM] | GI50 [3, 13] [µM] | GI50 [4, 14] [µM] | GI50 ([5]; Homo sapiens, NCI-H1975, 72 h) [µM] | GI50 [6, 15] [µM] | GI50 [7, 16] [µM] | GI50 [8, 17] [µM] | GI50 [9, 18] [µM] | GI50 ([10]; Homo sapiens, Bel-7402, 72 h) [µM] | GI50 ([11]; Homo sapiens, K562, 72 h) [µM] | IC50 (HDAC11) [µM] | IC50 (HDAC2) [µM] | GI50 [3, 20] [µM] | GI50 [4, 21] [µM] | GI50 [6, 22] [µM] | GI50 [7, 23] [µM] | GI50 [8, 24] [µM] | GI50 [9, 25] [µM] | IC50 (HDAC11; [26]) [µM] | other results |
| --- | --- | --- | --- | --- | --- | --- | --- | --- | --- | --- | --- | --- | --- | --- | --- | --- | --- | --- | --- | --- | --- |
| C/C=C1\NC(=O)c2ccc(SC)c(n2)CNC(=O)C[C@@H](/C=C/CCSC(C)=O)OC(=O)[C@H](CC)NC1=O [Compound 179] | 0.025 | 0.03 | 0.1 | 0.06 | 0.054 | 0.05 | 0.08 | 0.06 | 0.06 | 0.065 | 0.071 | 0.092 | 0.051 |  |  |  |  |  |  |  |  |
| C/C=C1\NC(=O)c2cc(F)cc(n2)CNC(=O)C[C@@H](/C=C/CCSC(C)=O)OC(=O)[C@H](C(C)C)NC1=O [Compound 94] | 0.084 |  |  |  | 0.034 |  |  |  |  | 0.084 |  | 0.091 | 0.035 | 0.03 | 0.04 | 0.03 | 0.03 | 0.08 | 0.03 |  | GI50 [2, 19]: 0.03 µM; GI50 [11]: 0.039 µM |
| C/C=C1\NC(=O)c2cc(SCCC)cc(n2)CNC(=O)C[C@@H](/C=C/CCSC(=O)CCCCCCC)OC(=O)[C@H](CC)NC1=O [Compound 175] | 0.013 | 0.03 | 0.08 | 0.1 | 0.042 | 0.04 | 0.02 | 0.05 | 0.02 | 0.105 | 0.039 | 0.055 | 0.032 |  |  |  |  |  |  |  |  |
| C/C=C1\NC(=O)c2nc(F)cc(n2)CNC(=O)C[C@@H](/C=C/CCSC(C)=O)OC(=O)[C@H](C(C)C)NC1=O [Compound 98] |  |  |  |  |  |  |  |  |  |  |  |  | 0.019 |  |  |  |  |  |  | 0.089 | GI50 [1]: 0.035 µM; GI50 [2, 19]: 0.04 µM; GI50 ([3]; 72 hours incubation, read-out: GI50 lnca): 0.02 µM; GI50 ([4]; 72 hours incubation, read-out: GI50 A54): 0.6 µM; GI50 [5]: 0.081 µM; GI50 ([6]; 72 hours incubation, read-out: GI50 U93): 0.03 µM; GI50 ([7]; 72 hours incubation, read-out: GI50 Mol): 0.02 µM; GI50 ([8]; 72 hours incubation, read-out: GI50 PAN): 0.08 µM; GI50 ([9]; 72 hours incubation, read-out: GI50 MCF): 0.03 µM; GI50 [10]: 0.043 µM; GI50 [11]: 0.037 µM |
| C/C=C1\NC(=O)c2cc(F)cc(n2)CNC(=O)C[C@@H](/C=C/CCSC(C)=O)OC(=O)[C@H](CC)NC1=O [Compound 58] | 0.049 |  |  |  | 0.061 |  |  |  |  | 0.049 | 0.026 |  | 0.021 | 0.03 | 0.05 | 0.06 | 0.03 | 0.04 | 0.08 | 0.097 | GI50 [2, 27]: 0.02 µM |
| C/C=C1\NC(=O)c2nc(ccc2F)CNC(=O)C[C@@H](/C=C/CCSC(=O)CCCCC)OC(=O)[C@H](C(C)C)NC1=O [Compound 36] | 0.062 |  |  |  | 0.019 |  |  |  |  | 0.062 | 0.029 |  | 0.043 | 0.04 | 0.04 | 0.02 | 0.04 | 0.06 | 0.05 | 0.085 | GI50 [2, 27]: 0.02 µM |
| C/C=C1\NC(=O)c2cc(SC)cc(n2)CNC(=O)C[C@@H](/C=C/CCSC=O)OC(=O)[C@H](C(C)C)NC1=O [Compound 169] | 0.029 | 0.07 | 0.05 | 0.04 | 0.044 | 0.02 | 0.04 | 0.04 | 0.07 | 0.046 | 0.037 | 0.092 | 0.052 |  |  |  |  |  |  |  |  |
| C/C=C1\NC(=O)c2cccc(n2)CNC(=O)C[C@@H](/C=C/CCSC(C)=O)OC(=O)[C@H](CCCCN)NC1=O [Compound 15] | 0.051 |  |  |  | 0.038 |  |  |  |  | 0.086 | 0.026 |  | 0.047 | 0.4 | 2.3 | 1.12 | 19.7 | 2.58 | 19.8 | 0.106 | GI50 [2, 27]: 0.48 µM |
| C/C=C1\NC(=O)c2cccc(n2)CNC(=O)C[C@@H](/C=C/CCSC(=O)CCCCCCC)OC(=O)[C@H](c2ccc(O)cc2)NC1=O [Compound 238] | 0.029 | 0.01 | 0.11 | 0.01 | 0.082 | 0.01 |  | 0.07 | 0.02 | 0.031 | 0.065 |  | 0.083 |  |  |  |  |  |  | 0.065 | GI50 ([2]; Homo sapiens, DU-145, 72 h, 72 hours, present invention, read-out: GI50 Du145, a): 0.012 µM; GI50 ([3]; Homo sapiens, LNCaP, 72 h, 72 hours, present invention, read-out: GI50 lncap, a): 0.11 µM; GI50 ([4]; Homo sapiens, A549, 72 h, 72 hours, present invention, read-out: GI50 A549, a): 0.016 µM; GI50 ([6]; Homo sapiens, U-937, 72 h, 72 hours, present invention, read-out: GI50 U937, a): 0.015 µM; GI50 ([7]; Homo sapiens, MOLT-4, 72 h, 72 hours, present invention, read-out: GI50 Molt-4, a): 0.008 µM; GI50 ([8]; Homo sapiens, PANC-1, 72 h, 72 hours, present invention, read-out: GI50 PANC-1, a): 0.077 µM; GI50 ([9]; Homo sapiens, MCF7, 72 h, 72 hours, present invention, read-out: GI50 MCF7, a): 0.023 µM |
